Tests used:
[1] = DRUGMATRIX: GABAA, Flunitrazepam, Central radioligand binding (ligand: [3H] Flunitrazepam); format: cell membranes, Rattus norvegicus, Wistar, Brain, Membrane; conditions: Not Active = under 50% inhibition at 10 µM
[2] = target: T1, Adenosine receptor A3 (Homo sapiens, UniProt P0DMS8); format: cell membranes, CHO-K1, Membrane; conditions: for Ki: read-out: Ki;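 on all read-outs here: radioligand binding assay with AB-MECA serving as the labeled ligand; in other assays of this panel Not Active means under 50% inhibition at 10 µM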
T1 sequence (P0DMS8 whole entry): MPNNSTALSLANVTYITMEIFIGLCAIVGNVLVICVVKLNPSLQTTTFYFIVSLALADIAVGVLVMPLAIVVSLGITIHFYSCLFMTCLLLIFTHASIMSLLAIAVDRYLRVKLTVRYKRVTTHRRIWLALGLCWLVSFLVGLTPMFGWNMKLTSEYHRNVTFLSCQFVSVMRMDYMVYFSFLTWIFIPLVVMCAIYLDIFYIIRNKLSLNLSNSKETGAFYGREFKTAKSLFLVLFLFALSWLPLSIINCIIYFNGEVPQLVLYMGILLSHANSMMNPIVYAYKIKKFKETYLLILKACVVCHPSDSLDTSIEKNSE

[3] = target: T2, Muscarinic acetylcholine receptor M5 (Homo sapiens, UniProt P08912); format: cell membranes, CHO-K1, Membrane; conditions: for Ki: read-out: Ki; on all read-outs here: in other assays of this panel Not Active means under 50% inhibition at 10 µM
T2 sequence (P08912 whole entry): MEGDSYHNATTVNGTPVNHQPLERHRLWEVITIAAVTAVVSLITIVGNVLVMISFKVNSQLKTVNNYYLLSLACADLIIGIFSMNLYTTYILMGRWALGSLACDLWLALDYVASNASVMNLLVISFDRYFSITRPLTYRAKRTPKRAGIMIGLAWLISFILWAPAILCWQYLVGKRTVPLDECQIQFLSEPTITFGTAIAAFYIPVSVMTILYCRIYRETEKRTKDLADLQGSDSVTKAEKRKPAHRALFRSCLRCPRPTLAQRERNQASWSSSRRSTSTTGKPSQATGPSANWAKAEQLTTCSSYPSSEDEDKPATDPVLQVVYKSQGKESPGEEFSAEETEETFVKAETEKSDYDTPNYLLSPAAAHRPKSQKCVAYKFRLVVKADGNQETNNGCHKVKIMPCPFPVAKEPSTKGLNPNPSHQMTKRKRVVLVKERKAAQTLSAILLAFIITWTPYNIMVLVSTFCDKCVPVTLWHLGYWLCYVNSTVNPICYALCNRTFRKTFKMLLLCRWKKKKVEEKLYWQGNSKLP

[4] = target: T3, 5-hydroxytryptamine receptor 2C (Homo sapiens, UniProt P28335); test: DRUGMATRIX: Serotonin (5-Hydroxytryptamine) 5-HT2C radioligand binding (ligand: [3H] Mesulergine); format: cell membranes, CHO-K1, Membrane; conditions: Not Active = under 50% inhibition at 10 µM; for Ki: read-out: Ki
T3 sequence (P28335 whole entry): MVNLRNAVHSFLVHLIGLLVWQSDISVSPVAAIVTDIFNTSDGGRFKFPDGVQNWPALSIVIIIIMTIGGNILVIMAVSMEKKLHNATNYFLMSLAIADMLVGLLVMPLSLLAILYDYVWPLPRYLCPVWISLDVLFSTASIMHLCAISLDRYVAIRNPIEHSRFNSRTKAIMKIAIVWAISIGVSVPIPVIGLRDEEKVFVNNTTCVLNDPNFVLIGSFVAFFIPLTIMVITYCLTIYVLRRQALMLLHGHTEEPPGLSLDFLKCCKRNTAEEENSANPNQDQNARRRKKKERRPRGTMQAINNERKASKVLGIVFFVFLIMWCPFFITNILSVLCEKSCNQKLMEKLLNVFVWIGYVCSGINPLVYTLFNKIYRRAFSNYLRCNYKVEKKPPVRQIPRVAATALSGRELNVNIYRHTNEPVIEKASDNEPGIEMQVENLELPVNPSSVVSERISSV

| Structure (SMILES) | IC50 [1] | Ki [1] | IC50 ([2]; cho-k1) | IC50 ([3]; cho-k1) | IC50 ([4]; cho-k1) | IC50 ([3]; read-out: IC50) [nM] | Ki [3] [nM] | IC50 ([4]; read-out: IC50) [nM] | Ki [4] [nM] | IC50 ([2]; read-out: IC50) [nM] | Ki [2] [nM] |
| --- | --- | --- | --- | --- | --- | --- | --- | --- | --- | --- | --- |
| C[C@@H]1C[C@H]2[C@@H]3CCC4=CC(=O)C=C[C@]4(C)[C@@]3(F)[C@@H](O)C[C@]2(C)[C@H]1C(=O)CO [DESOXIMETASONE] | Not Active | Not Active | Not Active | Not Active | Not Active |  |  |  |  |  |  |
| C[C@@H]1C[C@H]2[C@@H]3CCC4=CC(=O)C=C[C@]4(C)[C@@]3(F)[C@@H](O)C[C@]2(C)[C@@]1(O)C(=O)CO [DEXAMETHASONE] | Not Active | Not Active | Not Active | Not Active | Not Active |  |  |  |  |  |  |
| CN(C)CC[C@@H](c1ccc(Cl)cc1)c1ccccn1 [DEXCHLORPHENIRAMINE] | Not Active | Not Active | Not Active |  |  | 1040 | 749 | 2320 | 1220 |  |  |
| C[C@@H]1CC[C@@]2(OC1)O[C@H]1[C@@H](O)[C@H]3[C@@H]4CC[C@H]5C[C@@H](O[C@@H]6O[C@H](CO)[C@H](O[C@@H]7O[C@H](CO)C(O)[C@H](O[C@@H]8OC[C@@H](O)[C@H](O)[C@H]8O)[C@H]7O[C@@H]7O[C@H](CO)[C@H](O)[C@H](O[C@@H]8O[C@H](CO)[C@@H](O)[C@H](O)[C@H]8O)[C@H]7O)[C@H](O)[C@H]6O)[C@H](O)C[C@]5(C)[C@H]4CC[C@]3(C)[C@H]1[C@@H]2C (stereo partly drawn) [DIGITONIN] | Not Active | Not Active | Not Active | Not Active | Not Active |  |  |  |  |  |  |
| OC(CCCN1CCCCC1)(c1ccccc1)c1ccccc1 [DIPHENIDOL] | Not Active | Not Active | Not Active |  | Not Active | 1190 | 855 |  |  |  |  |
| C[C@H]1O[C@@H](n2cc(F)c(=O)[nH]c2=O)[C@H](O)[C@@H]1O [DOXIFLURIDINE] | Not Active | Not Active | Not Active | Not Active | Not Active |  |  |  |  |  |  |
| Cn1c(=O)c2c(ncn2CC(O)CO)n(C)c1=O (stereo not drawn) [DYPHYLLINE] | Not Active | Not Active | Not Active | Not Active | Not Active |  |  |  |  |  |  |
| CC[C@H]1CN2CCc3cc(OC)c(OC)cc3[C@@H]2C[C@@H]1C[C@H]1NCCc2cc(OC)c(OC)cc21 [EMETINE] | Not Active | Not Active | Not Active | Not Active | Not Active |  |  |  |  |  |  |
| C[C@@H](CO)NC(=O)[C@@H]1C=C2c3cccc4[nH]cc(c34)C[C@H]2N(C)C1 [ERGONOVINE] | Not Active | Not Active | Not Active | Not Active |  |  |  | 21 | 11 |  |  |
| COC(=O)CCc1ccc(OCC(O)CNC(C)C)cc1 (stereo not drawn) [ESMOLOL] | Not Active | Not Active | Not Active | Not Active | Not Active |  |  |  |  |  |  |
| CCC1(C)CC(=O)NC1=O (stereo not drawn) [ETHOSUXIMIDE] | Not Active | Not Active | Not Active | Not Active | Not Active |  |  |  |  |  |  |
| C#C[C@]1(OC(C)=O)CC[C@H]2[C@@H]3CCC4=C[C@@H](OC(C)=O)CC[C@@H]4[C@H]3CC[C@@]21C [ETHYNODIOL DIACETATE] | Not Active | Not Active | Not Active | Not Active | Not Active |  |  |  |  |  |  |
| COc1cc([C@@H]2c3cc4c(cc3[C@@H](O[C@@H]3O[C@@H]5CO[C@@H](C)O[C@H]5[C@H](O)[C@H]3O)[C@H]3COC(=O)[C@H]23)OCO4)cc(OC)c1O [ETOPOSIDE] | Not Active | Not Active | Not Active | Not Active | Not Active |  |  |  |  |  |  |
| C=CCc1ccc(O)c(OC)c1 [EUGENOL] | Not Active | Not Active | Not Active | Not Active | Not Active |  |  |  |  |  |  |
| CC(C(=O)O)c1cccc(Oc2ccccc2)c1 (stereo not drawn) [FENOPROFEN] | Not Active | Not Active | Not Active | Not Active | Not Active |  |  |  |  |  |  |
| CC(C)(C)NC(=O)[C@H]1CC[C@H]2[C@@H]3CC[C@H]4NC(=O)C=C[C@]4(C)[C@H]3CC[C@]12C [FINASTERIDE] | Not Active | Not Active | Not Active | Not Active | Not Active |  |  |  |  |  |  |
| COc1ccc2c3c1O[C@H]1C[C@@H](O)C=C[C@@]31CCN(C)C2 [GALANTAMINE] | Not Active | Not Active | Not Active | Not Active | Not Active |  |  |  |  |  |  |
| Nc1ccn([C@@H]2O[C@H](CO)[C@@H](O)C2(F)F)c(=O)n1 [GEMCITABINE] | Not Active | Not Active | Not Active | Not Active | Not Active |  |  |  |  |  |  |
| CC(C)=CCC/C(C)=C/CO [GERANIOL] | Not Active | Not Active | Not Active | Not Active | Not Active |  |  |  |  |  |  |
| N=C(N)NC(=O)Cc1c(Cl)cccc1Cl [GUANFACINE] | Not Active | Not Active | Not Active | Not Active |  |  |  | 1450 | 761 |  |  |
| Oc1c(Cl)cc(Cl)c(Cl)c1Cc1c(O)c(Cl)cc(Cl)c1Cl [HEXACHLOROPHENE] | Not Active | Not Active |  | Not Active |  |  |  | 4600 | 2410 | 639 | 361 |
| NNc1nncc2ccccc12 [HYDRALAZINE] | Not Active | Not Active | Not Active | Not Active | Not Active |  |  |  |  |  |  |
| CC(=O)[C@@]1(O)CC[C@H]2[C@@H]3CCC4=CC(=O)CC[C@]4(C)[C@H]3CC[C@@]21C [HYDROXYPROGESTERONE] | Not Active | Not Active |  | Not Active | Not Active |  |  |  |  | 4730 | 2670 |
| COC1=C(OC)C(=O)C(CCCCCCCCCCO)=C(C)C1=O [IDEBENONE] | Not Active | Not Active | Not Active | Not Active | Not Active |  |  |  |  |  |  |
| CC(C)NNC(=O)c1ccncc1 [IPRONIAZID] | Not Active | Not Active | Not Active | Not Active | Not Active |  |  |  |  |  |  |
